Experimental data published in paper PMC12543283, “TastepepAI: An artificial intelligence platform for taste peptide de novo design” (PLOS Computational Biology, 2025).
Ends that are not written are not given here.

Key:
[1] = system: human pancreatic ductal epithelial cells (HPNE)
[2] = system: human umbilical vein endothelial cells (HUVEC)
[3] = system: human bronchial epithelial cells (BEAS-2B)
[4] = Electronic tongue analysis (Taste-Sensing System SA 402B); set-up: unit not given here; conditions: reference solution 30 mM KCl + 0.3 mM tartaric acid as baseline, first measurement excluded; for Umami: sensor AAE; for Umami / Bitter / Sweet: detection threshold 0, room temperature; for Umami / Bitter / Sour / Salty: four replicates; for Sour: detection threshold -13, room temperature; for Salty: detection threshold -6, room temperature; for Sweet: measured five times
Description: Taste characteristics were analyzed using the electronic tongue system E-tongue (Taste-Sensing System SA 402B, Intelligent Sensor Technology Co. Ltd., Japan). The system was equipped with five specific sensor probes for detecting sourness (CA0), saltiness (CT0), bitterness (C00), sweetness (GL1), and umami (AAE). Samples were tested at concentrations of 0.1 mg/mL and 1.0 mg/mL. Prior to experiments, sensors were activated by immersion in a reference solution (30 mM KCl and 0.3 mM tartaric acid) for 24 h. A 30 min self-diagnostic procedure was performed before each measurement to ensure data accuracy. The reference solution served both as a cleaning solution and standard solution for taste signal calibration. According to the manufacturer’s instructions, using the reference solution as baseline, the detection thresholds were set at −13 for sourness, −6 for saltiness, and 0 for other taste modalities. Two cleaning solutions were employed for electrode maintenance: (1) 30% ethanol solution containing 100 mM HCl for negative charge reference electrodes, and (2) 30% ethanol solution containing 100 mM KCl and 10 mM KOH for positive charge reference electrodes. All taste measurements were performed at room temperature with four replicates, except for sweetness which was measured five times. The first measurement data were excluded from analysis.

[5] = system: human embryonic kidney cells (HEK293T)

Row | Substance | Average cell viability, HPNE [1] | Cell viability, HPNE, Data1 [1] | Cell viability, HPNE, Data2 [1] | Cell viability, HPNE, Data3 [1] | Average cell viability, HUVEC [2] | Cell viability, HUVEC, Data1 [2] | Cell viability, HUVEC, Data2 [2] | Cell viability, HUVEC, Data3 [2] | Average cell viability, BEAS-2B [3] | Cell viability, BEAS-2B, Data1 [3] | Cell viability, BEAS-2B, Data2 [3] | Cell viability, BEAS-2B, Data3 [3] | Umami ([4]; peptide 1 mg/mL) | Bitter ([4]; sensor C00, peptide 1 mg/mL) | Sour ([4]; sensor CA0, peptide 0.1 mg/mL) | Sour ([4]; sensor CA0, peptide 1 mg/mL) | Salty ([4]; sensor CT0, peptide 1 mg/mL) | Sweet ([4]; sensor GL1, peptide 0.1 mg/mL) | Sweet ([4]; sensor GL1, peptide 1 mg/mL) | Average cell viability, HEK293T [5] | other results
1 | EKGVQ [TaPep64] | 98.34 | 89.85 | 95.04 | 110.12 | 104.98 | 101.54 | 110.56 | 102.82 | 103.99 | 103.09 | 103.59 | 105.28 | -4.02 | 3.04 | -4.25 | 9.90 | 10.50 | 4.85 | -4.54 | 103.19 | Umami ([4]; peptide 0.1 mg/mL): 1.91; Bitter ([4]; sensor C00, peptide 0.1 mg/mL): 7.39; Salty ([4]; sensor CT0, peptide 0.1 mg/mL): -21.79; Cell viability, HEK293T, Data1 [5]: 103.53; Cell viability, HEK293T, Data2 [5]: 102.87; Cell viability, HEK293T, Data3 [5]: 103.15
2 | IAVPHEP [TaPep47] | 99.80 | 107.02 | 87.25 | 105.12 | 101.12 | 101.62 | 112.48 | 89.25 | 106.38 | 109.97 | 99.00 | 110.17 | -4.54 | 3.37 | -4.89 | 10.97 | 9.73 | 6.95 | -5.60 | 100.09 | Umami ([4]; peptide 0.1 mg/mL): 2.32; Bitter ([4]; sensor C00, peptide 0.1 mg/mL): 8.00; Salty ([4]; sensor CT0, peptide 0.1 mg/mL): -19.15; Cell viability, HEK293T, Data1 [5]: 104.67; Cell viability, HEK293T, Data2 [5]: 100.41; Cell viability, HEK293T, Data3 [5]: 95.21
3 | SLEYLP [TaPep35] | 109.88 | 105.12 | 118.20 | 106.32 | 100.35 | 100.75 | 100.03 | 100.27 | 109.54 | 106.58 | 102.99 | 119.04 | -4.82 | 2.77 | -3.84 | 12.93 | 10.87 | 8.65 | -7.23 | 98.64 | Umami ([4]; peptide 0.1 mg/mL): 1.93; Bitter ([4]; sensor C00, peptide 0.1 mg/mL): 7.64; Salty ([4]; sensor CT0, peptide 0.1 mg/mL): -20.10; Cell viability, HEK293T, Data1 [5]: 104.29; Cell viability, HEK293T, Data2 [5]: 94.35; Cell viability, HEK293T, Data3 [5]: 97.29
4 | HGGDDLG [TaPep28] | 100.10 | 100.63 | 102.04 | 97.63 | 104.66 | 105.77 | 106.73 | 101.46 | 108.84 | 111.86 | 106.08 | 108.57 | -5.39 | 4.00 | -2.05 | 13.70 | 11.23 | 3.25 | -6.08 | 97.67 | Umami ([4]; peptide 0.1 mg/mL): 1.08; Bitter ([4]; sensor C00, peptide 0.1 mg/mL): 7.58; Salty ([4]; sensor CT0, peptide 0.1 mg/mL): -21.08; Cell viability, HEK293T, Data1 [5]: 96.62; Cell viability, HEK293T, Data2 [5]: 99.75; Cell viability, HEK293T, Data3 [5]: 96.62
5 | STGTIR [TaPep51] | 102.86 | 115.31 | 89.05 | 104.23 | 103.43 | 102.66 | 96.59 | 111.04 | 98.34 | 100.20 | 97.01 | 97.81 | -2.27 | 7.16 | -8.80 | 5.93 | 8.48 | 12.64 | -1.16 | 100.60 | Umami ([4]; peptide 0.1 mg/mL): 3.88; Bitter ([4]; sensor C00, peptide 0.1 mg/mL): 9.91; Salty ([4]; sensor CT0, peptide 0.1 mg/mL): -19.53; Cell viability, HEK293T, Data1 [5]: 100.60; Cell viability, HEK293T, Data2 [5]: 99.65; Cell viability, HEK293T, Data3 [5]: 101.55
6 | NNDDEES [TaPep50] | 98.30 | 106.02 | 107.52 | 81.36 | 105.59 | 101.94 | 108.73 | 106.09 | 104.39 | 104.29 | 103.89 | 104.99 | -3.90 | 4.27 | -4.45 | 9.63 | 3.54 | 7.42 | -3.07 | 101.39 | Umami ([4]; peptide 0.1 mg/mL): 2.11; Bitter ([4]; sensor C00, peptide 0.1 mg/mL): 7.18; Salty ([4]; sensor CT0, peptide 0.1 mg/mL): -22.53; Cell viability, HEK293T, Data1 [5]: 105.62; Cell viability, HEK293T, Data2 [5]: 98.99; Cell viability, HEK293T, Data3 [5]: 99.56
7 | LQDVVE [TaPep24] | 93.71 | 94.37 | 92.98 | 93.78 | 103.54 | 91.48 | 106.25 | 112.88 | 113.59 | 103.99 | 117.45 | 119.34 | -3.57 | 3.73 | -4.17 | 9.09 | 4.83 | 6.22 | -4.08 | 99.02 | Cell viability, HEK293T, Data1 [5]: 102.40; Cell viability, HEK293T, Data2 [5]: 97.85; Cell viability, HEK293T, Data3 [5]: 96.81
8 | YQAENKH [TaPep14] | 98.70 | 93.34 | 103.13 | 99.63 | 95.42 | 102.42 | 90.29 | 93.56 | 116.78 | 112.46 | 118.94 | 118.94 | -3.87 | 0.38 | -6.58 | 9.86 | 13.64 | 7.88 | -4.10 | 98.23 | Umami ([4]; peptide 0.1 mg/mL): 3.07; Bitter ([4]; sensor C00, peptide 0.1 mg/mL): 7.83; Salty ([4]; sensor CT0, peptide 0.1 mg/mL): -18.09; Cell viability, HEK293T, Data1 [5]: 95.02; Cell viability, HEK293T, Data2 [5]: 96.25; Cell viability, HEK293T, Data3 [5]: 103.44
